From patent US8729056B2, “Preventive and/or therapeutic agent of hand-foot syndrome” (Ono Pharmaceutical Co., Ltd., priority 2010, dated 2014)

Tests used:
[1] = compared with tolterodine; Pharmacology and Toxicology Vol. 81, 1997; cited from earlier work
[2] = WO1999/58478; cited from earlier work
[3] = system: Hand-Foot Syndrome; conditions: patients with highest Hand-Foot Syndrome grade of 3; on average; Phase 2 clinical study in Japan; cited from earlier work
[4] = sweat from patients with Hand-Foot Syndrome administered the drug; cited from earlier work
[5] = system: Hand-Foot Syndrome caused by sorafenib tosilate administration; assay: Cases 3-6: effect of anticholinergic drugs on Hand-Foot Syndrome caused by sorafenib tosilate in kidney cancer patients; format: in vivo, human
Excerpt: (§1) In the present invention, the preventive and/or treatment effect of the anticholinergic drug against Hand-Foot Syndrome can be evaluated, for example, by the criteria of Hand-Foot Syndrome in Table 1, Table 2, and Table 3 as shown below. Table 1 is the criteria proposed by Blum, and appeared on page 485-493 in volume 17 of Journal Clinical Oncology published in 1999. Grade 0 is not referred to in this table, but it is understood as grade 0 if no symptom is observed. Table 2 is the National Cancer Institute-Common Toxicity Criteria Version 2.0 (NCI-CTC v2.0), and Table 3 is the National Cancer Institute-Common Terminology Criteria for Adverse Events Version 3.0 (NCI-CTCAE v3.0). Grade 0 is also not referred to in Table 3, but it is understood as grade 0 if no symptom is observed.
We examined the effect of imidafenacin in a patient with kidney cancer who developed Hand-Foot Syndrome caused by sorafenib tosilate administration (sorafenib 800 mg/day).
We examined the effect of imidafenacin in a patient with kidney cancer who developed Hand-Foot Syndrome caused by sorafenib tosilate administration.
From this point, Imidafenacin 0.1 mg was orally administered to the patient twice a day in addition to the urea ointment.
We examined the effect of solifenacin succinate in a patient with kidney cancer who developed Hand-Foot Syndrome caused by sorafenib tosilate administration (sorafenib 800 mg/day).
We examined the effect of tolterodine tartrate in a patient with kidney cancer who developed Hand-Foot Syndrome caused by sorafenib tosilate administration.

[6] = system: Hand-Foot Syndrome caused by sunitinib malate administration; assay: Case 2: effect of imidafenacin on Hand-Foot Syndrome caused by sunitinib malate in a kidney cancer patient; format: in vivo, human; conditions: imidafenacin combined with urea ointment, heparinoid ointment and clobetasol propionate ointment, after eight days of such treatment
Excerpt: as §1

For `Cc1nc(-c2ccccc2)nc(SCc2ccc(Cl)cc2)c1CO` [5-hydroxymethyl derivative], the anticholinergic activity [1] is listed as “equivalent to tolterodine”.

In the case of `CC(C)C(=O)Oc1ccc(CO)cc1[C@H](CCN(C(C)C)C(C)C)c1ccccc1` [Fesoterodine, 2-[(1R)-3-(dipropan-2-ylamino)-1-phenylpropyl]-4-(hydroxymethyl)phenyl 2-methylpropanoate], the “metabolism after oral administration” value [2] is given as “rapidly is metabolized to the 5-hydroxymethyl derivative”.

In the case of `CCCCCOC(=O)Nc1nc(=O)n([C@@H]2O[C@H](C)[C@@H](O)[C@H]2O)cc1F` [capecitabine], the “period for recovery of Hand-Foot Syndrome after interruption” value [3] is given as “about two to three”.

For `COc1cccc2c1C(=O)c1c(O)c3c(c(O)c1C2=O)C[C@@](O)(C(=O)CO)C[C@@H]3O[C@H]1C[C@H](N)[C@H](O)[C@H](C)O1` [doxorubicin], the “drug substance in sweat” value [4] is given as “detected”.

In the case of `Cc1nccn1CCC(C(N)=O)(c1ccccc1)c1ccccc1` [imidafenacin, 4-(2-Methyl-1H-imidazole-1-yl)-2,2-diphenylbutanamide], the “recurrence of Hand-Foot Syndrome” value ([5]; case 3, after full recovery, continuous administration of imidafenacin and the moisturizing agent) is reported as “prevented”, the “recovery from Hand-Foot Syndrome” value ([5]; case 3, imidafenacin continued in combination with heparinoid cream, after 22 days) is reported as “full recovery” and the “recovery from Hand-Foot Syndrome” value [6] is reported as “full recovery”.

With `Cc1ncc(CO)c(CO)c1O.Cl` [pyridoxine hydrochloride] the “change of Hand-Foot Syndrome” value ([5]; case 6, grade 3, urea ointment in addition to pyridoxine hydrochloride, sorafenib 800 mg/day, without tolterodine tartrate) was “no improvements”.

In the case of `O=C(O[C@H]1CN2CCC1CC2)N1CCc2ccccc2[C@@H]1c1ccccc1` [solifenacin succinate, (3R)-1-Azabicyclo[2.2.2]oct-3-yl(1S)-1-phenyl-3,4-dihydroisoquinoline-2(1H)-carboxylate], the “recurrence of Hand-Foot Syndrome” value ([5]; case 5, continuous administration of solifenacin succinate after full recovery) is reported as “prevented” and the “recovery from Hand-Foot Syndrome” value ([5]; case 5, solifenacin succinate 5 mg orally once a day, started at grade 2, 28 days after beginning) is reported as “full recovery”.

In the case of `CNC(=O)c1cc(Oc2ccc(NC(=O)Nc3ccc(Cl)c(C(F)(F)F)c3)cc2)ccn1` [sorafenib tosilate], the “drug substance in sweat” value [4] is given as “not detected”.
